Measurements published in patent US6482921B1, “Uridyl peptide antibiotic (UPA) derivatives, their synthesis and use” (Essential Therapeutics, Inc., priority 1999, dated 2002).
Values after ≈ are worked out from the molar mass of the structure shown.

Columns and labels:
[1] = test system: Pseudomonas aeruginosa PAM 1020; test: MIC broth microdilution, P. aeruginosa PAM 1020 (wild type); assay type: cell-based; settings: for MIC (μg/ml) Broth microdilution: P. aeruginosa PAM 1020
[2] = test system: Escherichia Coli MC 4100 AcrAB UPA3r; test: MIC broth microdilution, E. coli MC 4100 AcrAB UPA3r (ΔAcrAB, UPA resistant); assay type: cell-based; settings: for MIC (μg/ml) Broth microdilution: E. coli AcrAB UPA3^r
[3] = test system: Pseudomonas aeruginosa PAM 1135; test: MIC broth microdilution, P. aeruginosa PAM 1135 (high level UPA resistance); assay type: cell-based; settings: for MIC (μg/ml) Broth microdilution: P. aeruginosa PAM 1135 UPA1^r
[4] = test system: Staphylococcus aureus 8325-4; test: MIC broth microdilution, S. aureus 8325-4 (wild type); assay type: cell-based; settings: for MIC (μg/ml) Broth microdilution: S. aureus 8325-4
[5] = test system: Staphylococcus aureus ATCC 29213; test: MIC broth microdilution, S. aureus ATCC 29213 (wild type); assay type: cell-based; settings: for MIC (μg/ml) Broth microdilution: S. aureus ATCC 29213
[6] = test system: Pseudomonas aeruginosa PAM 1154; test: MIC broth microdilution, P. aeruginosa PAM 1154 (OprM::Hg); assay type: cell-based; settings: for MIC (μg/ml) Broth microdilution: P. aeruginosa PAM 1154 OprM::Hg
Escherichia Coli MC 4100 = test: MIC broth microdilution, E. coli MC 4100 (wild type); assay type: cell-based; settings: for MIC (μg/ml) Broth microdilution: E. coli MC 4100
bacteria = test: Antibacterial activity, stated in words; assay type: cell-based
[7] = test system: Escherichia Coli MC 4100 AcrAB; test: MIC broth microdilution, E. coli MC 4100 AcrAB (ΔAcrAB); assay type: cell-based; settings: for MIC (μg/ml) Broth microdilution: E. coli AcrAB
[8] = test system: Mycobacterium tuberculosis TN913; test: MIC agar dilution, M. tuberculosis TN913; assay type: cell-based
[9] = test system: Pasteurella multocida pm002; test: MIC broth microdilution, P. multocida pm002 (wild type); assay type: cell-based
[10] = test system: Mycobacterium tuberculosis H37Rv; test: MIC agar dilution, M. tuberculosis H37Rv; assay type: cell-based
[11] = test system: Pseudomonas aeruginosa PAM 1323; test: MIC broth microdilution, P. aeruginosa PAM 1323 (medium level UPA resistance); assay type: cell-based
[12] = test system: Streptococcus pneumoniae ATCC 49619; test: MIC broth microdilution, S. pneumoniae ATCC 49619; assay type: cell-based; settings: ATCC 49619, CAMHB containing 4% lysed horse blood
Protocol: (§1) In a second panel, Table 5, compounds of this invention were tested for their antimicrobial activity against the bacterial strains H. influenzae hf032 and S. pneumoniae ATCC 49629.
(§2) As above, a broth microdilution assay was used but the culture media were varied according to the specific growth requirements of each bacteria according to the recommendations of the NCCLS. For instance, susceptibility testing for H, influenzae was performed using Haemophilus test medium (HTM-Remel, cat. #20-042). For S. pneumoniae, cation adjusted MHB (CAMHB) containing 4% lysed horse blood was used. MICs were determined as described above.

[13] = test system: Haemophilus influenzae hf032; test: MIC broth microdilution, H. influenzae hf032; assay type: cell-based; settings: strain hf032, Haemophilus test medium
Protocol: as §1, §2

E. coli translocase = E. coli translocase (Escherichia coli, UniProt P0A6W3)
[14] = test system: mammalian enzymes that catalyze the formation of lipid-linked saccharides; settings: background statement; cited from earlier work
[15] = target: bacterial translocase I (phospho-N-acetylmuramyl-pentapeptide translocase) (Escherichia coli, UniProt P0A6W3); settings: background statement; cited from earlier work
Chain of bacterial translocase I (phospho-N-acetylmuramyl-pentapeptide translocase) (P0A6W3 whole entry): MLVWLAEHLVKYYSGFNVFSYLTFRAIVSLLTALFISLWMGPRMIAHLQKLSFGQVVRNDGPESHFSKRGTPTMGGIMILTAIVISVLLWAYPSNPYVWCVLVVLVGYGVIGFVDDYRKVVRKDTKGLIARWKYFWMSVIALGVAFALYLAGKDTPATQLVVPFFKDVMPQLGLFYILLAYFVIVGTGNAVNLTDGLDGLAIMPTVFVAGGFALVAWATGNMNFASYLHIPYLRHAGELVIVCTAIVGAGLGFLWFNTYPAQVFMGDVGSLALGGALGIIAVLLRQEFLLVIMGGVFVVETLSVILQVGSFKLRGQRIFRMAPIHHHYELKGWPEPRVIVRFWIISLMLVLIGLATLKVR

Chain of E. coli translocase (P0A6W3 whole entry): as above

| Compound | antibacterial / biological activity (in words) (bacteria) | MIC (μg/ml) Broth microdilution [1] [µg/mL] | MIC (μg/ml) Broth microdilution [2] [µg/mL] | MIC (μg/ml) Broth microdilution [3] [µg/mL] | MIC (μg/ml) Broth microdilution [4] [µg/mL] | MIC (μg/ml) Broth microdilution [5] [µg/mL] | MIC (μg/ml) Broth microdilution [6] [µg/mL] | MIC (μg/ml) Broth microdilution (Escherichia Coli MC 4100) [µg/mL] | MIC (μg/ml) Broth microdilution [7] [µg/mL] | action on mammalian enzymes / lipid-linked saccharide formation (in words) [14] | translocase inhibition (in words) [15] | further results |
| --- | --- | --- | --- | --- | --- | --- | --- | --- | --- | --- | --- | --- |
| C[C@H](N)C(=O)N(C)[C@@H](C)[C@H](NC(=O)[C@H](C)NC(=O)N[C@@H](Cc1c[nH]c2ccccc12)C(=O)O)C(=O)NC[C@H]1C[C@@H](O)[C@H](n2ccc(=O)[nH]c2=O)O1 [Compound 34] | comparable biological activity to dihydropacidamycin D |  |  |  |  |  |  |  |  |  |  | MIC ([1]; Pseudomonas aeruginosa, PAM1020, read-out: MIC (μg/ml) Broth microdilution): 64 µg/mL (≈ 89.7 µM); MIC ([2]; Escherichia coli, read-out: MIC (μg/ml) Broth microdilution): 16 µg/mL (≈ 22.4 µM); MIC ([3]; Pseudomonas aeruginosa, PAM1135, read-out: MIC (μg/ml) Broth microdilution): > 512 µg/mL; MIC ([4]; Staphylococcus aureus, 83254, read-out: MIC (μg/ml) Broth microdilution): > 512 µg/mL; MIC ([5]; Staphylococcus aureus, ATCC29213, read-out: MIC (μg/ml) Broth microdilution): 512 µg/mL (≈ 717 µM); MIC ([6]; Pseudomonas aeruginosa, PAM1154, read-out: MIC (μg/ml) Broth microdilution): 4 µg/mL (≈ 5.6 µM); MIC (Escherichia Coli MC 4100; Escherichia coli, COLIMC4100, read-out: MIC (μg/ml) Broth microdilution): 128 µg/mL (≈ 179 µM); MIC ([7]; Escherichia coli, COLIMC4100ACRAB, read-out: MIC (μg/ml) Broth microdilution): 2 µg/mL (≈ 2.8 µM) |
| CSCCC(NC(=O)NC(Cc1ccc(O)cc1)C(=O)O)C(=O)NC(C(=O)NCC1CC(O)C(n2ccc(=O)[nH]c2=O)O1)C(C)N(C)C(=O)C(C)N [Compound 115, 1-[5′[(2S,3S)-N^3-L-Alanyl-N^2-[N-[[(1S)-1-carboxy-4-hydroxyphenethyl)-carbamoyl]-L-methionyl]-N^3-methyl-2,3-diaminobutyramido]-3′,5′-dideoxy-α-L-arabinofuranosyl]uracil] |  | 4 (≈ 5.33 µM) | 32 (≈ 42.6 µM) | >512 | >512 | >512 | 2 (≈ 2.66 µM) | >512 | 8 (≈ 10.7 µM) |  |  | MIC TN913 (SENSITIVE) [8]: >30 µg/mL; MIC (μg/ml) Broth microdilution [9]: 128 µg/mL (≈ 170 µM); MIC H37RV (SENSITIVE) [10]: >30 µg/mL; MIC (μg/ml) Broth microdilution [11]: 256 µg/mL (≈ 341 µM); MIC Broth microdilution S. pneumoniae [12]: >512 µg/mL; MIC Broth microdilution H. influenzae [13]: 16 µg/mL (≈ 21.3 µM) |
| Dihydropacidamycin D [Compound 3] | displayed the antibacterial spectrum of pacidamycin D | 16 | 32 | >512 | 256 | 512 | 8 | 128 | 2 |  |  | inhibition of E. coli translocase (in words) (E. coli translocase): inhibitor of E. coli translocase |
| Tetrahydropacidamycin D [Compound 4] | exhibited antibacterial activity | 8 | 64 | 512 | >512 | >512 | 4 | 256 | 2 |  |  | inhibition of translocase I (in words) (E. coli translocase; species of enzyme not given): inhibited translocase I |
| amphomycin [reference compound] |  | 64 | 16 | 512 | >512 | >512 | 4 | 256 | 4 | also target mammalian enzymes | translocase inhibitors |  |
| tunicamycin |  |  |  |  |  |  |  |  |  | also target mammalian enzymes | translocase inhibitors |  |
